Patent US20150025234A1, “GANGLIOSIDE COMPOSITIONS” (priority 2013, published 2015)
“Also recorded” adds a separate entry of the source.

Assays:
[1] = tested on: human bone marrow-derived cells (HBM); assay type: cell-based
[2] = tested on: Adult Human Bone Marrow Cells; assay: CLQ treatment of adult human bone marrow cells, CTB-Alexa488 staining (Example 2); assay type: cell-based; details: 50 uM CLQ, 48 h, CTB-Alexa488, FIG. 2; listed as CLQ
[3] = tested on: PC12 (rat adrenal medulla tumor) cells; details: FEBS Lett. 580:6972-6976 (2006); cited from earlier work
[4] = tested on: HT22 (mouse hippocampal) cells; details: J. Neurochem. 119:839-847 (2011); cited from earlier work
[5] = tested on: Parkinson's disease subjects; details: cited from earlier work

## CCN(CC)CCCC(C)Nc1ccnc2cc(Cl)ccc12 (stereo not drawn) [Chloroquine, chloroquine]
[1]
  up-regulation of GM1 expression vs control: approximately 8 fold
[2]
  accumulation of GM1 vs control: significantly higher accumulation of GM1; also recorded: abundant and intense compared to control conditions
[3]
  accumulation: induce accumulation
[4]
  GM1 levels: only moderately increased GM1 levels

## GM1
[5]; five-year study, J. Neurol. Sci. 292:45-51 (2010)
  safety of long-term use: safe
[5]; short-term treatment, Neurology 50:1630-1636 (1998)
  effect on symptoms: significant symptom reduction
